Drawing on patent US8883797B2, “Metalloenzyme inhibitor compounds” (Viamet Pharmaceuticals, Inc., priority 2011, dated 2014), this text covers MIC for 31 compounds.

Each structure is given as a SMILES string. Values after ≈ are worked out from the molar mass of the structure shown. Where only a bound is given, the exact number is not on record here.

The experiment deals with Septoria tritici (ATCC 26517). Kind of experiment: Minimum Inhibitory Concentration (MIC) (Septoria tritici), CLSI-based microdilution. Format: cell-based. The following applies: Zymoseptoria tritici, ATCC26517, 168 h; S. tritici ATCC 26517; 50% growth reduction; 7 days at 22 °C; read-out: Septoria Rating (MIC). As for the experimental part:
C. Minimum Inhibitory Concentration (MIC) (Septoria tritici) Compounds of the present disclosure were assessed for their ability to inhibit the growth of a common strain of the fungal plant pathogen Septoria tritici (ATCC 26517) using a procedure based on a Clinical and Laboratory Standards Institute (CLSI) microdilution assay protocol for filamentous fungi. Stock solutions of the test compounds and standards were prepared in DMSO at 6400 μg/mL. Each stock solution was used to prepare a 2-fold dilution series ranging from 16 to 0.016 μg/mL (total of 11 compound concentrations) in RPMI-1640 (Roswell Park Memorial Institute) medium containing 3-(N-morpholino)propanesulfonic acid (MOPS) buffer and 2% DMSO. A 100 μL aliquot of the dilutions was added to columns 1 (16 μg/mL compound) through 11 (0.016 μg/mL compound) of a 96-well microtiter plate. This format was replicated in a second row of the microtiter plate. Thus, each microtiter plate could include 11 concentrations of four test or control compounds replicated twice. A 100 μL aliquot of RPMI-1640/MOPS/2% DMSO medium was added to column 12 (no compound control) of the microtiter plate. A fresh culture of S. tritici was used to prepare a solution of approximately 5×10^4 colony-forming units per milliliter (cfu/mL) in RPMI/MOPS medium without DMSO. A 100 μL aliquot of this solution was added to all 96 wells in the microtiter plate. […] The assay plates were incubated at 22° C. for seven days in the dark without shaking. […] In each case of Table 3 the rating scale is as follows: […]
(Dilution methods test growth across graded concentrations, often in twofold steps.)

In the case of `OC(Cn1cnnn1)(c1ccc(Cl)cc1F)C(F)(F)c1ccc2cc(Cl)ccc2n1` (stereo not drawn) [8(−), 2-(4-Chloro-2-fluorophenyl)-1-(6-chloroquinolin-2-yl)-1,1-difluoro-3-(1H-tetrazol-1-yl)propan-2-ol], the MIC (in general, the smallest concentration in the dilution series that meets the test's criterion for growth inhibition) is no more than 0.5 µg/mL.
Under `OC(Cn1cnnn1)(c1ccc(F)cc1F)C(F)(F)c1cnc2cc(Cl)ccc2n1` (stereo not drawn) [10(−), 1-(6-Chloroquinoxalin-2-yl)-2-(2,4-difluorophenyl)-1,1-difluoro-3-(1H-tetrazol-1-yl)propan-2-ol] stands no more than 0.5 µg/mL; under `OC(Cn1cnnn1)(c1ccc(F)cc1F)C(F)(F)c1nc(Br)cs1` (stereo not shown) [Compound 2, 1-(4-Bromothiazol-2-yl)-2-(2,4-difluorophenyl)-1,1-difluoro-3-(1H-tetrazol-1-yl)propan-2-ol], 1.5 to 4 µg/mL (≈ 3.42 to 9.13 µM).
For `OC(Cn1cnnn1)(c1ccc(F)cc1F)C(F)(F)c1nc2ccccc2s1` (stereo not shown) [Compound 6, 1-(Benzo[d]thiazol-2-yl)-2-(2,4-difluorophenyl)-1,1-difluoro-3-(1H-tetrazol-1-yl)propan-2-ol], the MIC was no more than 0.5 µg/mL.
`OC(Cn1cnnn1)(c1ccc(F)cc1F)C(F)(F)c1nccs1` (stereo not shown) [Compound 12, 2-(2,4-Difluorophenyl)-1,1-difluoro-3-(1H-tetrazol-1-yl)-1-(thiazol-2-yl)propan-2-ol]: the minimum inhibitory concentration (MIC) was greater than 4 µg/mL.
With `OC(Cn1cnnn1)(c1ccc(F)cc1F)C(F)(F)c1cccs1` (stereo not shown) [Compound 14, 2-(2,4-Difluorophenyl)-1,1-difluoro-3-(1H-tetrazol-1-yl)-1-(thiophen-2-yl)propan-2-ol], the minimal inhibitory concentration (MIC) was in the range of 0.5 to 1.5 µg/mL (≈ 1.4 to 4.19 µM).
The figure for `COc1ccc(C(O)(Cn2cnnn2)C(F)(F)c2ccc3cc(Cl)ccc3n2)cc1` (stereo not shown) [Compound 15, 1-(6-Chloroquinolin-2-yl)-1,1-difluoro-2-(4-methoxyphenyl)-3-(1H-tetrazol-1-yl)propan-2-ol] is 1.5 to 4 µg/mL (≈ 3.47 to 9.26 µM).
The figure for `OC(Cn1ncnn1)(c1ccc(F)cc1F)C(F)(F)c1ccc2cc(Cl)ccc2n1` (stereo not shown) [Compound 16, 1-(6-Chloroquinolin-2-yl)-2-(2,4-difluorophenyl)-1,1-difluoro-3-(2H-tetrazol-2-yl)propan-2-ol] is 0.5 to 1.5 µg/mL (≈ 1.14 to 3.43 µM); for `OC(Cn1cnnn1)(c1ccc(F)cc1F)C(F)(F)c1ccc2cc(F)ccc2n1` (stereo not shown) [Compound 17, 2-(2,4-Difluorophenyl)-1,1-difluoro-1-(6-fluoroquinolin-2-yl)-3-(1H-tetrazol-1-yl)propan-2-ol] it is no more than 0.5 µg/mL.
With `OC(Cn1cnnn1)(c1ccc(F)cc1F)C(F)(F)c1ccc2cc(OCC(F)(F)F)ccc2n1` (stereo not shown) [Compound 19, 2-(2,4-Difluorophenyl)-1,1-difluoro-3-(1H-tetrazol-1-yl)-1-(6-(2,2,2-trifluoroethoxy)quinolin-2-yl)propan-2-ol], the minimal inhibitory concentration (MIC) is 0.5 to 1.5 µg/mL (≈ 0.997 to 2.99 µM).
The figure for `OC(Cn1cnnn1)(c1ccc(C(F)(F)F)cc1F)C(F)(F)c1ccc2cc(Cl)ccc2n1` (stereo not shown) [Compound 20, 1-(6-Chloroquinolin-2-yl)-1,1-difluoro-2-(2-fluoro-4-(trifluoromethyl)phenyl)-3-(1H-tetrazol-1-yl)propan-2-ol] is 0.5 to 1.5 µg/mL (≈ 1.03 to 3.08 µM); for `OC(Cn1cnnn1)(c1ccc(C(F)(F)F)cc1Cl)C(F)(F)c1ccc2cc(Cl)ccc2n1` (stereo not shown) [Compound 22, 2-(2-Chloro-4-(trifluoromethyl)phenyl)-1-(6-chloroquinolin-2-yl)-1,1-difluoro-3-(1H-tetrazol-1-yl)propan-2-ol] it is 1.5 to 4 µg/mL (≈ 2.97 to 7.93 µM); for `OC(Cn1cnnn1)(c1ccc(F)c(F)c1)C(F)(F)c1ccc2cc(Cl)ccc2n1` (stereo not shown) [Compound 23, 1-(6-Chloroquinolin-2-yl)-2-(3,4-difluorophenyl)-1,1-difluoro-3-(1H-tetrazol-1-yl)propan-2-ol] it is no more than 0.5 µg/mL.
For the compound `N#Cc1ccc2nc(C(F)(F)C(O)(Cn3cnnn3)c3ccc(F)cc3F)ccc2c1` (stereo not shown) [Compound 24, 2-(2-(2,4-Difluorophenyl)-1,1-difluoro-2-hydroxy-3-(1H-tetrazol-1-yl)propyl)quinoline-6-carbonitrile], the MIC was no more than 0.5 µg/mL.
Under `OC(Cn1cnnn1)(c1ccc(F)cc1F)C(F)(F)c1ccc2c(Cl)c(Cl)ccc2n1` (stereo not shown) [Compound 29, 1-(5,6-Dichloroquinolin-2-yl)-2-(2,4-difluorophenyl)-1,1-difluoro-3-(1H-tetrazol-1-yl)propan-2-ol] stands no more than 0.5 µg/mL.
Under `OC(Cn1cnnn1)(c1ccc(F)cc1F)C(F)(F)c1ccc2c(OCC(F)(F)F)cccc2n1` (stereo not shown) [Compound 30, 2-(2,4-Difluorophenyl)-1,1-difluoro-3-(1H-tetrazol-1-yl)-1-(5-(2,2,2-trifluoroethoxy)quinolin-2-yl)propan-2-ol] stands 1.5 to 4 µg/mL (≈ 2.99 to 7.98 µM); under `OC(Cn1cnnn1)(c1ccc(F)cc1F)C(F)(F)c1ccc2c(Cl)cccc2n1` (stereo not shown) [Compound 31, 1-(5-Chloroquinolin-2-yl)-2-(2,4-difluorophenyl)-1,1-difluoro-3-(1H-tetrazol-1-yl)propan-2-ol], 1.5 to 4 µg/mL (≈ 3.43 to 9.14 µM).
Under `OC(Cn1cnnc1)(c1ccc(F)cc1F)C(F)(F)c1ccc2cc(Cl)ccc2n1` (stereo not shown) [Compound 35, 1-(6-Chloroquinolin-2-yl)-2-(2,4-difluorophenyl)-1,1-difluoro-3-(4H-1,2,4-triazol-4-yl)propan-2-ol] stands 1.5 to 4 µg/mL (≈ 3.43 to 9.16 µM); under `OC(Cn1cnnn1)(c1ccc(F)cc1F)C(F)(F)c1ccc(-c2ccc(OCC(F)(F)F)cc2)nc1` (stereo not shown) [Compound 36, 2-(2,4-Difluorophenyl)-1,1-difluoro-3-(1H-tetrazol-1-yl)-1-(6-(4-(2,2,2-trifluoroethoxy)phenyl)pyridin-3-yl)propan-2-ol], 1.5 to 4 µg/mL (≈ 2.84 to 7.58 µM); under `OC(Cn1cnnn1)(c1ccc(F)cc1F)C(F)(F)c1cnc(-c2ccc(Cl)cc2)cn1` (stereo not shown) [Compound 40, 1-(5-(4-Chlorophenyl)pyrazin-2-yl)-2-(2,4-difluorophenyl)-1,1-difluoro-3-(1H-tetrazol-1-yl)propan-2-ol], 0.5 to 1.5 µg/mL (≈ 1.08 to 3.23 µM).
`OC(Cn1cnnn1)(c1ccc(F)cc1F)C(F)(F)c1cnc(-c2ccc(OCC(F)(F)F)cc2)cn1` (stereo not shown) [Compound 41, 2-(2,4-Difluorophenyl)-1,1-difluoro-3-(1H-tetrazol-1-yl)-1-(5-(4-(2,2,2-trifluoroethoxy)phenyl)pyrazin-2-yl)propan-2-ol]: the MIC was no more than 0.5 µg/mL.
`OC(Cn1cnnn1)(c1ccc(F)cc1F)C(F)(F)c1cnc(-c2ccc(F)c(F)c2)cn1` (stereo not shown) [Compound 44, 2-(2,4-Difluorophenyl)-1-(5-(3,4-difluorophenyl)pyrazin-2-yl)-1,1-difluoro-3-(1H-tetrazol-1-yl)propan-2-ol]: the MIC is 0.5 to 1.5 µg/mL (≈ 1.07 to 3.22 µM).
The figure for `OC(Cn1cnnn1)(c1ccc(F)cc1)C(F)(F)c1cnc(-c2ccc(OC(F)(F)F)cc2)cn1` (stereo not shown) [Compound 45, 1,1-Difluoro-2-(4-fluorophenyl)-3-(1H-tetrazol-1-yl)-1-(5-(4-(trifluoromethoxy)phenyl)pyrazin-2-yl)propan-2-ol] is 1.5 to 4 µg/mL (≈ 3.02 to 8.06 µM); for `OC(Cn1cnnn1)(c1ccc(F)cc1F)C(F)(F)c1cnc(-c2ccc(F)cc2)cn1` (stereo not shown) [Compound 46, 2-(2,4-Difluorophenyl)-1,1-difluoro-1-(5-(4-fluorophenyl)pyrazin-2-yl)-3-(1H-tetrazol-1-yl)propan-2-ol] it is 0.5 to 1.5 µg/mL (≈ 1.12 to 3.35 µM).
As for `OC(Cn1ncnn1)(c1ccc(F)cc1F)C(F)(F)c1cnc(-c2ccc(F)cc2)cn1` (stereo not shown) [Compound 47, 2-(2,4-Difluorophenyl)-1,1-difluoro-1-(5-(4-fluorophenyl)pyrazin-2-yl)-3-(2H-tetrazol-2-yl)propan-2-ol], the minimal inhibitory concentration (MIC) is greater than 4 µg/mL.
Under `OC(Cn1cnnn1)(c1ccc(F)cc1F)C(F)(F)c1cnc(C#Cc2ccc(F)cc2)cn1` (stereo not shown) [Compound 50, 2-(2,4-Difluorophenyl)-1,1-difluoro-1-(5-((4-fluorophenyl)ethynyl)pyrazin-2-yl)-3-(1H-tetrazol-1-yl)propan-2-ol] stands no more than 0.5 µg/mL; under `OC(Cn1ncnn1)(c1ccc(F)cc1F)C(F)(F)c1cnc(C#Cc2ccc(F)cc2)cn1` (stereo not shown) [Compound 51, 2-(2,4-difluorophenyl)-1,1-difluoro-1-(5-((4-fluorophenyl)ethynyl)pyrazin-2-yl)-3-(2H-tetrazol-2-yl)propan-2-ol], 1.5 to 4 µg/mL (≈ 3.18 to 8.47 µM); under `OC(Cn1ncnn1)(c1ccc(F)cc1F)C(F)(F)c1cnc(CCc2ccc(F)cc2)cn1` (stereo not shown) [Compound 53, 2-(2,4-Difluorophenyl)-1,1-difluoro-1-(5-(4-fluorophenethyl)pyrazin-2-yl)-3-(2H-tetrazol-2-yl)propan-2-ol], 1.5 to 4 µg/mL (≈ 3.15 to 8.4 µM).
Under `OC(Cn1cnnn1)(c1ccc(F)cc1F)C(F)(F)c1cnc2cc(OC(F)(F)F)ccc2n1` (stereo not shown) [Compound 54, 2-(2,4-Difluorophenyl)-1,1-difluoro-3-(1H-tetrazol-1-yl)-1-(6-(trifluoromethoxy)quinoxalin-2-yl)propan-2-ol] stands 1.5 to 4 µg/mL (≈ 3.07 to 8.19 µM); under `OC(Cn1cnnn1)(c1ccc(F)cc1F)C(F)(F)c1cnc2cc(F)ccc2n1` (stereo not shown) [Compound 55, 2-(2,4-Difluorophenyl)-1,1-difluoro-1-(6-fluoroquinoxalin-2-yl)-3-(1H-tetrazol-1-yl)propan-2-ol], 1.5 to 4 µg/mL (≈ 3.55 to 9.47 µM).
As to `OC(Cn1cnnn1)(c1ccc(F)cc1F)C(F)(F)c1ccc(-c2ccc(F)cc2)nn1` (stereo not shown) [Compound 58, 2-(2,4-Difluorophenyl)-1,1-difluoro-1-(6-(4-fluorophenyl)pyridazin-3-yl)-3-(1H-tetrazol-1-yl)propan-2-ol], the MIC fell in the range of 1.5 to 4 µg/mL (≈ 3.35 to 8.92 µM).
